How the values were obtained:
Conditions in all cases: human; call rule not given here
Hepatotoxicity [1] = experiment: FDA HLAED, serum glutamic oxaloacetic transaminase (SGOT) increase
Hepatotoxicity [2] = experiment: FDA HLAED, alkaline phosphatase increase
Hepatotoxicity [3] = experiment: FDA HLAED, gamma-glutamyl transferase (GGT) increase
Hepatotoxicity [4] = experiment: FDA HLAED, liver enzyme composite activity
Hepatotoxicity [5] = experiment: FDA HLAED, lactate dehydrogenase (LDH) increase
Hepatotoxicity [6] = experiment: FDA HLAED, serum glutamic pyruvic transaminase (SGPT) increase
Wherever GGT Increase - Index Value is given: reference of the scale not given here.
Wherever LDH Increase - Index Value is given: reference of the scale not given here.

Compound | SGOT Increase - Activity Score (Hepatotoxicity [1]) | SGOT Increase - Index Value (Hepatotoxicity [1]) | SGOT Increase - Number of Reports (Hepatotoxicity [1]) | Alkaline Phosphatase Increase - Activity Score (Hepatotoxicity [2]) | Alkaline Phosphatase Increase - Index Value (Hepatotoxicity [2]) | Alkaline Phosphatase Increase - Number of Reports (Hepatotoxicity [2]) | GGT Increase - Activity Score (Hepatotoxicity [3]) | GGT Increase - Index Value (Hepatotoxicity [3]) | GGT Increase - Number of Reports (Hepatotoxicity [3]) | Composite Activity - Active (Hepatotoxicity [4]) | Composite Activity - Marginal (Hepatotoxicity [4]) | Composite Activity - Score (Hepatotoxicity [4]) | LDH Increase - Activity Score (Hepatotoxicity [5]) | LDH Increase - Index Value (Hepatotoxicity [5]) | LDH Increase - Number of Reports (Hepatotoxicity [5]) | SGPT Increase - Activity Score (Hepatotoxicity [6]) | SGPT Increase - Index Value (Hepatotoxicity [6]) | SGPT Increase - Number of Reports (Hepatotoxicity [6]) | other results
CN1CCN(C2=Nc3cc(Cl)ccc3Nc3ccccc32)CC1 [CLOZAPINE] | Active | 45.1 | >= 4 | Active | 34.2 | >= 4 | Active | 11.4 | >= 4 | 5 | 0 | Active | Active | 16.8 | >= 4 | Active | 42.9 | >= 4 | –
CC1(C)S[C@@H]2[C@H](NC(=O)C3(N)CCCCC3)C(=O)N2[C@H]1C(=O)O [CYCLACILLIN] | Inactive | 0 | < 4 | Inactive | 0 | < 4 | Inactive | 0 | < 4 | 0 | 0 | Inactive | Inactive | 0 | < 4 | Inactive | 0 | < 4 | –
Cc1ccccc1N1CCN(CCc2nnc3n2CCCC3)CC1 [DAPIPRAZOLE] | Inactive | 0 | < 4 | Inactive | 0 | < 4 | Inactive | 0 | < 4 | 0 | 0 | Inactive | Inactive | 0 | < 4 | Inactive | 0 | < 4 | –
COc1cccc2c1C(=O)c1c(O)c3c(c(O)c1C2=O)C[C@@](O)(C(C)=O)C[C@@H]3O[C@H]1C[C@H](N)[C@H](O)[C@H](C)O1 [DAUNORUBICIN] | Inactive | 0 | < 4 | Inactive | 0 | < 4 | Inactive | 0 | < 4 | 0 | 0 | Inactive | Inactive | 0 | < 4 | Inactive | 0 | < 4 | –
CCN[C@@H](C)Cc1cccc(C(F)(F)F)c1 [DEXFENFLURAMINE] | Inactive | 1 | >= 4 | Inactive | 0.2 | < 4 | Inactive | 0.6 | < 4 | 0 | 0 | Inactive | Inactive | 0.4 | < 4 | Inactive | 0.6 | < 4 | –
C[C@@H](CN1CC(=O)NC(=O)C1)N1CC(=O)NC(=O)C1 [DEXRAZOXANE] | Inactive | 0 | < 4 | Inactive | 0 | < 4 | Inactive | 0 | < 4 | 0 | 0 | Inactive | Inactive | 0 | < 4 | Inactive | 0 | < 4 | –
C[C@@]12CCCCC[C@@H](Cc3ccc(O)cc31)[C@@H]2N [DEZOCINE] | Inactive | 0 | < 4 | Inactive | 0 | < 4 | Inactive | 0 | < 4 | 0 | 0 | Inactive | Inactive | 0 | < 4 | Inactive | 0 | < 4 | –
O=C(O)Cc1ccccc1Nc1c(Cl)cccc1Cl [DICLOFENAC] | Active | 11.4 | >= 4 | Active | 9.2 | >= 4 | Marginally Active | 3.8 | >= 4 | – | – | – | Inactive | 2 | >= 4 | Active | 11.1 | >= 4 | Composite Activity - Active (Hepatotoxicity [4]; Liver): 3; Composite Activity - Marginal (Hepatotoxicity [4]; Liver): 1; Composite Activity - Score (Hepatotoxicity [4]; Liver): Active
O=c1[nH]cnc2c1ncn2[C@H]1CC[C@@H](CO)O1 [DIDANOSINE] | Active | 13.7 | >= 4 | Active | 14.5 | >= 4 | Inactive | 1.5 | < 4 | 3 | 1 | Active | Marginally Active | 3 | >= 4 | Active | 12.9 | >= 4 | –

Source: ChEMBL document CHEMBL1697781, “Assessment of the health effects of chemicals in humans: II. Construction of an adverse effects database for QSAR modeling” (Curr Drug Discov Technol, 2004)
